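These data come from cells grown in 96-well plates and exposed to compound for 48 hours at five concentrations. At the TGI there is no net growth.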
Tests used:
Assay in all cases: inhibition of tumour cell growth, NCI panel, 48 h
[1] = tested on: SK-MEL-28 melanoma
[2] = tested on: MALME-3M melanoma
[3] = tested on: UACC-62 melanoma
[4] = tested on: SK-MEL-2 melanoma
[5] = tested on: 786-0 renal
[6] = tested on: UO-31 renal
[7] = tested on: TK-10 renal
[8] = tested on: KM12 colon
[9] = tested on: HOP-92 NSCLC
[10] = tested on: NCI-H522 lung
[11] = tested on: HCT-15 colon
[12] = tested on: IGROV1 ovarian
[13] = tested on: RPMI-8226 leukemia
[14] = tested on: NCI/ADR-RES ovarian
[15] = tested on: MDA-MB-435
[16] = tested on: MCF7 breast
[17] = tested on: PC-3 prostate
[18] = tested on: SNB-19 CNS
[19] = tested on: EKVX NSCLC
[20] = tested on: MDA-MB-231 breast

| SMILES | TGI [1] | TGI [2] | TGI [3] | TGI [4] | TGI [5] | TGI [6] | TGI [7] | TGI [8] | TGI [9] | TGI [10] | TGI [11] | TGI [12] | TGI [13] | TGI [14] | TGI [15] | TGI [16] | TGI [17] | TGI [18] | TGI [19] | TGI [20] |
| --- | --- | --- | --- | --- | --- | --- | --- | --- | --- | --- | --- | --- | --- | --- | --- | --- | --- | --- | --- | --- |
| Clc1ccc(CCn2cncn2)cc1 | > 100 µM | > 100 µM | > 100 µM | > 100 µM | > 100 µM | > 100 µM | > 100 µM | > 100 µM | > 100 µM | > 100 µM | > 100 µM | > 100 µM | > 100 µM | – | – | – | – | – | – | – |
| COc1ccc(-c2c3c(n(C4OC(COC(C)=O)C(OC(C)=O)C(OC(C)=O)C4OC(C)=O)c(=S)c2C#N)CCC3)cc1 (configuration not stated) | > 100 µM | > 100 µM | > 100 µM | > 100 µM | > 100 µM | > 100 µM | > 100 µM | > 100 µM | 49.3 µM | – | > 100 µM | > 100 µM | > 100 µM | > 100 µM | > 100 µM | > 100 µM | > 100 µM | > 100 µM | – | – |
| O=C(O)COc1ccc(C(=O)/C(SS/C(C(=O)c2ccc(OCC(=O)O)c(Cl)c2Cl)=C2\C=C(c3ccc(Cl)cc3)SS2)=C2/C=C(c3ccc(Cl)cc3)SS2)c(Cl)c1Cl | 56.7 µM | > 100 µM | 25.7 µM | 33.7 µM | 26.3 µM | 16.9 µM | > 100 µM | 54.6 µM | 17.9 µM | 9.54 µM | 18.1 µM | 76.2 µM | 43.3 µM | – | – | – | – | > 100 µM | > 100 µM | – |
| O=c1c2ccccc2nc2n1-c1ccccc1SC2 | > 100 µM | > 100 µM | > 100 µM | > 100 µM | > 100 µM | > 100 µM | > 100 µM | > 100 µM | > 100 µM | 70.8 µM | > 100 µM | > 100 µM | 71.9 µM | – | – | – | – | > 100 µM | > 100 µM | – |
| CC1=NNC(=O)C1C1CC(c2c[nH]c3ccccc23)=NN(C(N)=O)C1=O (configuration not stated) | > 100 µM | > 100 µM | > 100 µM | > 100 µM | > 100 µM | > 100 µM | > 100 µM | 88.3 µM | > 100 µM | > 100 µM | > 100 µM | > 100 µM | > 100 µM | > 100 µM | > 100 µM | – | > 100 µM | > 100 µM | > 100 µM | > 100 µM |
| O=C1NC(=O)C(C(=O)C(=O)Nc2ccc(Cl)cc2Cl)C(=O)N1 | – | > 100 µM | > 100 µM | > 100 µM | > 100 µM | > 100 µM | > 100 µM | > 100 µM | > 100 µM | – | > 100 µM | > 100 µM | > 100 µM | – | – | – | – | > 100 µM | > 100 µM | – |
| COc1ccc2nc3c([N+](=O)[O-])ccc(NCCCN(C)C)c3c(NCCCN(C)C)c2c1 | 3.42 µM | > 10 µM | > 10 µM | – | 2.13 µM | – | 5.52 µM | 2.54 µM | > 10 µM | – | 2.86 µM | 4.07 µM | 2.53 µM | – | > 10 µM | 2.33 µM | 2.24 µM | – | 5.09 µM | 2.87 µM |
| CCN(CC)C1CCC(C2c3cc4c(cc3OC(N3CCOCC3)C2C)OCO4)CC1 (configuration not stated) | > 100 µM | 90.7 µM | > 100 µM | 42.2 µM | > 100 µM | > 100 µM | > 100 µM | > 100 µM | > 100 µM | 72.5 µM | > 100 µM | > 100 µM | > 55.5 µM | > 83.1 µM | > 100 µM | > 84.1 µM | > 100 µM | > 100 µM | > 100 µM | – |
| Cc1nc(N2N=C(c3ccc(Cl)cc3)CCC2=O)sc1[N+](=O)[O-] | > 100 µM | > 100 µM | > 100 µM | > 100 µM | > 100 µM | > 100 µM | > 100 µM | > 100 µM | – | > 100 µM | > 100 µM | > 100 µM | > 100 µM | – | – | – | – | > 100 µM | > 100 µM | – |
| O=C1C=CC(=O)c2c1ccc1c3ccccc3n(-c3ccccc3)c21 | 14.4 µM | 16.8 µM | 26.2 µM | 26.6 µM | 33 µM | 25.5 µM | 17.8 µM | 37.7 µM | 7.78 µM | 3.15 µM | 10.7 µM | 34.5 µM | 4.59 µM | – | 30.3 µM | > 100 µM | 27 µM | 43.7 µM | 28.7 µM | 15.9 µM |
| O=C(/C=C/c1ccc(C(F)(F)F)cc1)c1c([O-])on[n+]1-c1ccccc1 | 2.89 µM | > 100 µM | 2.81 µM | 9.64 µM | 1.71 µM | 4 µM | 3.07 µM | 7.1 µM | 3.06 µM | – | 3.12 µM | 4.02 µM | – | 4.18 µM | – | > 34.5 µM | 9.2 µM | 15.5 µM | 5.83 µM | 20 µM |
| CC(=O)Oc1ccc2cc(Oc3ccc(Cl)c(Cl)c3)c(=O)oc2c1 | 79.3 µM | 94.1 µM | – | – | 52.4 µM | 51 µM | 79.2 µM | 48.7 µM | 78.8 µM | 46.5 µM | 53.8 µM | > 100 µM | > 100 µM | – | – | 80.6 µM | 53.3 µM | > 100 µM | 80.8 µM | > 100 µM |
| O=C(c1nc2ccccc2[nH]c1=O)C(O)c1ccco1 (configuration not stated) | > 100 µM | > 100 µM | > 100 µM | > 100 µM | > 100 µM | > 100 µM | > 100 µM | > 100 µM | > 100 µM | > 100 µM | > 100 µM | > 100 µM | > 100 µM | – | – | – | – | > 100 µM | > 100 µM | – |
| CCOC(=O)C(C(=O)OCC)c1ccc([N+](=O)[O-])o1 | 27.1 µM | 17.6 µM | 35.9 µM | 34.1 µM | 13.4 µM | 29 µM | 30.8 µM | 33.9 µM | 15 µM | 3.26 µM | 33.6 µM | 42.1 µM | 23.6 µM | – | – | – | – | > 100 µM | 35.4 µM | – |
